In paper PMC6100073, “Activation of Anthracene Endoperoxides in Leishmania and Impairment of Mitochondrial Functions” (Molecules : A Journal of Synthetic Chemistry and Natural …, 2018):
Read-outs that look alike come from different tables or passages of the source.

What was measured:
[1] = test system: LtP; assay: EPR (CMH oxidation): superoxide formation in LtP; assay type: cell-based, Leishmania tarentolae; conditions: 20 µM AA or 100 µM other compounds, 500 × 10^6 LtP/mL, 400 µM CMH, DFO, DTPA, 5 min, 25 °C
Protocol: To measure superoxide radical (O2^•−) formation induced by AcEPs in LtP, EPR spectroscopy was used. An aliquot of the cell broth was transferred into an Eppendorf tube that was centrifuged (Hettich Universal 16, 20 °C, 2000× g, 10 min). The supernatant was discarded, the cell pellet was resuspended in PBS and centrifuged again. After removal of the supernatant, the cell pellet was resuspended in a mixture of PBS, 15 mM glucose (PBS/Glu), DFO (100 µM), and DTPA (25 µM). […] The cell suspension was aliquoted. CMH was added as detection agent leading to a final concentration of 400 µM. After 5 min of incubation at 25 °C, the respective substance was added resulting in final concentrations of 20 µM antimycin A (AA) or 100 µM of AcEP1117, AcEP1118, AcEP1129, AcEP1130, Ac, and AQ. Samples containing LtP and CMH were used as negative control. Samples containing PBS/Glu and CMH were used as negative control as well. After 5 min of incubation at 25 °C with the respective substance, aliquots of 17 µL of the cell suspensions were aspirated into a PTFE tube (outer diameter 0.7 mm). The tube was transferred into the MD5 resonator of the EPR spectrometer. Immediately, the measurement was started using the following parameters: microwave frequency 9.684 GHz; microwave power 20 mW, modulation frequency 100 kHz; modulation amplitude 1 G; time constant 0.82 s; center field 3449 G; scan rate 14 G/min; sweep width 100 G; scan time 419 s; attenuation 2.52 × 10^4; and scans 5.

[2] = test system: LtP; assay: EPR spin trapping (DMPO): activation of AcEPs by LtP; assay type: cell-based, Leishmania tarentolae; conditions: 500 µM compound, 2 × 10^9 LtP/mL, 40 mM DMPO, 15 min, no added iron
Protocol: To detect the radicals derived from AcEPs in LtP, EPR experiments were performed using DMPO as spin trap. Aliquots of the cell broth were transferred into Sarstedt tubes that were centrifuged (20 °C, 1800× g, 10 min), and the supernatants were discarded. Then the cell pellets were resuspended in PBS and centrifuged again. After removal of the supernatants, the cell pellets were resuspended in a mixture of PBS containing glucose (15 mM), giving a final cell number of 2 × 10^9 LtP/mL. Aliquots (150 µL) were incubated in 1.5 mL Eppendorf tubes with aeration holes. The cells were incubated with DMPO (40 mM) for 5 min at 26 °C, and after addition of 500 µM of the respective substance (Asc, AcEP1117, AcEP1118, AcEP1129, AcEP1130, Ac or AQ), the samples were incubated for additional 15 min at 26 °C under constant agitation (agitation speed: 0.3 s^−1). Control samples containing LtP, LtP and DMSO (1.27%, v/v), or PBS/glucose alone were incubated with 40 mM DMPO under the same conditions. Cell samples containing DMPO that were treated with Asc served as positive control. Samples treated with Ac or AQ were used as negative controls. Subsequently, 50 µL of the samples were aspirated into glass capillaries and transferred in the MD5 resonator of the EPR spectrometer. The samples were measured immediately using the following instrument settings: microwave frequency 9.684 GHz; microwave power 20 mW, modulation frequency 100 kHz; modulation amplitude 2 G; time constant 0.164 s; center field 3449 G; scan rate 71 G/min; sweep width 100 G; scan time 84 s; attenuation 8.93 × 10^5; and scans 3.

[3] = Xylenol orange assay: reaction of endoperoxides with Fe2+; conditions: 50 µM compound, 250 µM FeSO4, 125 µM xylenol orange, methanol/H2O (9:1 v/v)
Protocol: Xylenol orange (XO) (125 µM) and butylated hydroxytoluene (4 mM) were dissolved in methanol/H2O (9:1, v/v). FeSO4 (25 mM) in 2.5 M H2SO4 was prepared immediately before use and added, giving a final concentration of 250 µM FeSO4 in the samples. An aliquot of 100 µL EP solution (final concentration of 50 µM) was transferred into a disposable 1.5 mL cuvette (BRAND, Wertheim, Germany), and 1 mL of the color reagent was added. […] At these time points, the OD difference of the sample at 560 nm and 650 nm was determined using a MS1501 UV-vis diode array spectrophotometer (Shimadzu, Japan). As reference, a mixture of methanol/H2O (9:1, v/v) was used. […] The slope of the reaction rate was calculated using an extinction coefficient of the complex of 1.5 × 10^4 M^−1 cm^−1.

[4] = test system: Leishmania donovani promastigotes (LdP); assay: MTS-PMS viability assay in Leishmania donovani promastigotes; assay type: cell-based; conditions: endpoint at 48 h, 5 × 10^5 LdP/mL, read-out: IC50 (µM) Mean ± SD LdP
Protocol: Leishmania donovani (PS14) were originated from the splenic aspirate of a patient with visceral leishmaniasis. Typing of the species was done by a restriction fragment length polymorphism (RFLP) method. The parasites were cultivated in M199 medium supplemented with 20% FBS, penicillin G (50,000 IU/L), streptomycin (50 mg/L), and hemin (5 µM) at 24 °C for transformation. After 1–2 weeks, the successfully transformed parasites (Leishmania donovani promastigotes, LdP) were transferred to M199 medium supplemented with 10% FBS, penicillin G (50,000 IU/L), streptomycin (50 mg/L), and hemin (5 µM) in 12.5 cm^2 flasks (HiMedia, Mumbai, India) at 24 °C. The cells were sub-cultured every 48–72 h, 1 × 10^6 cells/mL being the inoculum.
The antileishmanial activity of anthracene endoperoxides (AcEPs) in LdP was established in promastigotes, and cell viability was measured using the modified MTS-PMS assay. Briefly, log phase promastigotes (1 × 10^5 cells/200 µL of Schneider‘s medium/well) were incubated with AcEPs (0–100 µM) for 48 h, and afterwards, parasite viability was measured. For this, MTS (2.0 mg/mL) and PMS (0.92 mg/mL) were added in a ratio of 5:1 (20 µL/well), and plates were incubated for 3 h at 37 °C; resultant absorbance was measured at 490 nm in a spectrofluorimeter (Merilyzer EIaQuant, Meril Life Sciences, Gujarat, India). The mean percent viability was calculated as follows: mean specific absorbance of treated parasites/mean specific absorbance of untreated parasites × 100. Results were expressed as IC50 values. These were enumerated by graphical extrapolation using Graph pad Prism software (version 5).

SMILES | CMH oxidation (superoxide radical formation) in LtP [1] | DMPO spin adduct formation in LtP (EPR) [2] | Slope (nM·min^−1) Mean ± SD of XO/Fe^3+ complex formation [3] | IC50 ([4]; Leishmania donovani, 48 h) [µM] | IC50 [4] [µM]
O=C1c2ccccc2C(=O)c2ccccc21 [AQ, anthraquinone, reference compound] | did not trigger additional CMH oxidation in LtP | neither Ac nor AQ resulted in detectable DMPO spin adducts | – | – | –
CC12OOC(C)(c3ccccc31)c1ccccc12 [AcEP1118, 9,10-dimethyl-9,10-dihydro-9,10-epidioxidoanthracene] | failed to cause any enhanced oxidation of CMH | a moderate intensity DMPO spin adduct was observed | 2940 ± 11 nM/min | 4.1 ± 0.94 | –
c1ccc2cc3ccccc3cc2c1 [Ac, anthracene] | did not trigger additional CMH oxidation in LtP | neither Ac nor AQ resulted in detectable DMPO spin adducts | – | – | –
N=C(N)c1ccc(OCCCCCOc2ccc(C(=N)N)cc2)cc1 [Pen, pentamidine, reference compound] | – | – | – | < 1 | 0.55 ± 0.11
CC12OOC(c3ccccc31)c1ccccc12 [AcEP1129, 9-methyl-9,10-dihydro-9,10-epidioxidoanthracene] | an increased CMH oxidation rate occurred | high intensity EPR spectra of spin adducts were observed | 200,213 ± 60,600 nM·min^−1 | 4.21 ± 0.36 | –
CCc1ccc2c(c1)C1OOC2c2ccccc21 (stereo not shown) [AcEP1130, 2-ethyl-9,10-dihydro-9,10-epidioxidoanthracene] | an increased CMH oxidation rate occurred | no spin adducts were observed | 146 ± 27 nM/min | 39.5 ± 3.48 | –
c1ccc2c(c1)C1OOC2c2ccccc21 [AcEP1117, 9,10-dihydro-9,10-epidioxidoanthracene] | failed to cause any enhanced oxidation of CMH | no spin adducts were observed | 77 ± 18 nM/min | 2.65 ± 0.34 | –
